# Measured values reported in US4528188A, “Polysaccharide PS-A obtained from barrenwort deriving from plants belonging to the genus Epimedium, process for preparation thereof and phylactic and immunostimulating agents comprising said polysaccharide PS-A effective component” (priority 1981, dated 1985).
# Key:
# [1] = tested on: E. coli ML 4707; test: Combination with antibiotics, normal state (Table 11); assay type: in vivo, E. coli; male mice of the ICR/JCL strain; conditions: only ampicillin, 12.5 mg/kg twice
# Method: A sample was administered subcutaneously to the back of each of 5-weeks-old male mice of the ICR/JCL strain having a body weight of about 25 g (each group consisting of 10 mice) once a day continuously for five days (5 times in total). PS was given to a control group. On the sixth day, 1.0×10^7 cells of E. coli ML 4707 was challenged thereto by the intraperitoneal injection. 12.5 mg/kg of ampicillin (Ampicillin sodium for injection; produced by Toyama Kagaku Co., Ltd., Japan) was administered to each mouse twice (directly after the intraperitoneal injection and 4 hours thereafter). Seven days after the challenge, viable count was examined.
# [2] = tested on: E. coli ML 4707; test: Combination with an antibiotic in the immunosuppressive state (Table 12); assay type: in vivo, E. coli; female mice of the ICR/JCL strain; conditions: only ampicillin, 6.25 mg/kg s.c.; cyclophosphamide
# Method: A sample was administered subcutaneously to the back of each of 5-weeks-old female mice of the ICR/JCL strain having a body weight of about 25 g (each group consisting of 10 mice) once a day continuously for four days (4 times in total). PS was given to a control group. On the first day, 200 mg/kg of cyclophosphamide was injected to them by the intraperitoneal injection. On the next day of the final administration (i.e. on the fifth day), 1.0×10^6 cells of E. coli ML 4707 was challenged thereto by the intraperitoneal injection. One hour thereafter, 6.25 mg/kg of ampicillin (Ampicillin-sodium for injection; produced by Toyama Kagaku Co., Ltd., Japan) was administered to the back of each mouse by the subcutaneous injection. Seven days after the challenge, viable count was examined.
compound,measurement,setting,value
CC1(C)S[C@@H]2[C@H](NC(=O)[C@H](N)c3ccccc3)C(=O)N2[C@H]1C(=O)O [ampicillin],Viable count,[1],20%
same,Viable count,[2],10%
